Reference: patent US8552161B2, “Saponin compounds, methods of preparation thereof, use thereof and pharmaceutical compositions” (Uniwersytet W Bialymstoku, priority 2009, dated 2013)

Key:
[1] = tested on: CEM cells; assay: Flow cytometry cell cycle and apoptosis (subG1) analysis; type: cell-based
Protocol: The leukemia cancer CEM cells were trypsinized, seeded in 6 well plates, and immediately incubated with the respective compounds. […] Triton X-100, and 50 μg/ml propidium iodide in PBS. DNA content was assessed with a flow cytometer (Cell Lab Quanta SC—MPL, Beckman Coulter, Calif., USA). In a histogram analysis, distribution of cells into the subG1 (“apoptotic cells”), the G0/G1, S and the G2/M peak was quantified using software MultiCycle AV (Phoenix Flow Systems, CA, USA).

[2] = tested on: malignant melanoma cell line G-361; assay: Calcein AM cytotoxicity assay, G-361; type: cell-based, human; details: 72 h, means ± SD, three independent experiments in triplicate
Protocol: (§1) Stock solutions (10 mmol/l) of the tested compounds were prepared by dissolving relevant quantity of the substance in DMSO. […] Calcein AM was obtained from Molecular Probes (Invitrogen Corporation, CA, USA).
(§2) All cell lines were cultured in DMEM medium (Sigma, Mo., USA). Medium was supplemented with 10% heat-inactivated fetal bovine serum, 2 mmol/l L-glutamine and 1% penicillin-streptomycin. The cell lines were maintained under standard cell culture conditions at 37° C. and 5% CO2 in a humid environment. Cells were subcultured twice or three times a week using the standard trypsinization procedure.
(§3) All cell lines were cultured in DMEM medium (Sigma, Mo., USA) supplemented with 10% fetal calf serum, 2 mM glutamine, 100 U/ml penicillin and 100 μg/ml streptomycin, at 37° C. in a fully humidified atmosphere containing 5% CO2. Suspensions of these lines (ca. 1.0×10^5 cells/ml) were placed in 96-well microtitre plates and after 3 h of stabilization the tested compounds were added in serially diluted concentrations. Saponins were dissolved in dimethylsulfoxide (DMSO) before addition to cultures. Control cultures were treated with DMSO alone. The final concentration of DMSO in the reaction mixtures never exceeded 0.6%. Four-fold dilutions of the intended test concentration were added at time zero in 20 μl aliquots to the microtitre plate wells. Usually, each test compound was evaluated at six 4-fold dilutions and in routine testing; the highest well concentration was 50 μM, although this varied in a few cases, depending on the test compound. After 72 h of culture, the cells were incubated with Calcein AM solution (Molecular Probes) for 1 h. The fluorescence of viable cells was quantified using a Fluoroscan Ascent instrument (Microsystems).

[3] = tested on: breast carcinoma cell line MCF7; assay: Calcein AM cytotoxicity assay, MCF7; type: cell-based, human; details: Calcein AM assay, 72 h; means ± SD, three independent experiments in triplicate
Protocol: as §1, §2, §3

[4] = tested on: caspase-3/7 in CEM cells; assay: Activity of caspases-3/7 in treated CEM cells (Ac-DEVD-AMC substrate); type: cell-based; details: 24 h, 7.5 μM and 10 μM (FIG. 4)
Protocol: The CEM cells treated with the novel compounds were harvested by centrifugations and homogenized in an extraction buffer (10 mM KCl, 5 mM HEPES, 1 mM EDTA, 1 mM EGTA, 0.2% CHAPS, inhibitors of proteases, pH 7.4) on ice for 20 min. The homogenates were clarified by centrifugation at 10,000 g for […] at 4° C., the proteins were quantified by the Bradford method and diluted to the same concentration. Lysates were then incubated for 1 h with […] Ac-DEVD-AMC as a substrate (Sigma-Aldrich) in an assay buffer (25 mM PIPES, 2 mM EGTA, 2 mM MgCl2, 5 mM DTT, pH 7.3). For negative controls, the lysates were supplemented with […] Ac-DEVD-CHO as a caspase-3/7 inhibitor (Sigma-Aldrich). The fluorescence of the product was measured using a Fluoroskan Ascent microplate reader (Labsystems) at 346/442 nm (ex/em). Here, we determined the activity of caspase-3/7 in CEM cells exposed to 3, 6 or 7 using a fluorogenic substrate Ac-DEVD-AMC and/or caspase 3/7 inhibitor […]. Cells were treated in a dose-dependent manner with compounds 3 (1; 2.5; 5 μM), 6 (0.1; 0.25; 0.5 μM) and 7 (5; 7.5; 10 μM).

[5] = tested on: normal human fibroblasts BJ; assay: Calcein AM cytotoxicity assay, normal fibroblasts BJ; type: cell-based; details: 72 h, means ± SD, three independent experiments in triplicate
Protocol: as §1, §2, §3

[6] = tested on: leukemia cells (CEM); assay: Western blot analysis of apoptosis related proteins; type: cell-based; details: 24 h
Protocol: The cells were seeded in a density 2.2×10^4 cells/cm^2 using culture medium in 100-mm culture dishes. Immediately the cells were treated by novel saponins: 3 (1; 2.5; 5 μM), 6 (0.1; 0.25; 0.5 μM) and 7 (5; 7.5; 10 μM). DMSO was used as a vehicle for controls. After 24 h treatment, the cells were washed three times with cold PBS (10 mM, pH 7.4) and lysed in ice-cold protein extract RIPA buffer (20 mM Tris-HCl, pH 7.4, 5 mM EDTA, 2 mM EGTA, 100 mM NaCl, 2 mM NaF, 0.2% Nonidet P-40, 30 mM PMSF, 1 mM DTT, […] of aprotinin and leupeptin). The lysate was collected into microfuge tube and incubated on ice for 1 h. It was then cleared by centrifugation at 10,000×g for […] at 4° C., and supernatant was collected, aliquoted, and stored at −80° C. Proteins in lysates were quantified by the Bradford method and then diluted with Laemmli electrophoresis buffer. Proteins were then separated on 10% or 12% SDS-polyacrylamide gels, transferred onto nitrocellulose membranes (Bio-Rad Laboratories, CA, USA) and stained with Ponceau S to check equal protein loading. The membranes were blocked with 5% (w/v) non-fat dry milk and 0.1% Tween-20 in PBS for 2 h and probed with the specific primary antibodies overnight. After washing in PBS and PBS with 0.1% Tween-20, the membranes were probed with horseradish peroxidase-conjugated secondary antibodies and visualized with chemiluminescent detection reagent West Pico Supersignal (Thermo Fisher Scientific, Rockford, USA). To confirm equal protein loading, immunodetection was performed with the anti-α-tubulin monoclonal antibody. The experiments were repeated three times. The protein expressions in treated cells were compared to untreated controls.

With `C/C=C/C(=O)OC[C@@H](C)[C@@]1(O)[C@@H](O[C@@H]2OC[C@H](O)[C@H](O[C@@H]3OC[C@@H](O)[C@H](O)[C@H]3OC(=O)c3ccc(OC)cc3)[C@H]2OC(C)=O)C[C@H]2[C@@H]3CC=C4C[C@@H](O)CC[C@]4(C)[C@H]3CC[C@@]21C` [Compound 7, (20R)-21-O-[(E)-but-2-enoyl]-20-methylpregn-5-ene-3β,16β,17α,21-tetraol 16-O-{2-O-(4-methoxybenzoyl)-β-D-xylopyranosyl-(1→3)-2′-O-acetyl-α-L-arabinopyranoside}] the “subG1 phase of the cell cycle (apoptotic cells)” value ([1]; CEM cell line after treatment) was “increase in subG1 phase”, the “amount of debris (subG1) compared with untreated controls” value ([1]; CEM cells, 24 h (FIG. 3)) was 3 fold and the “distribution of CEM cells in cell cycle phases (FIG. 2)” value ([1]; CEM cells, increasing concentrations) was “increased the number of S-phase and G2/M cells with concomitant decrease of G0/G1 cells in dose-dependent manner”. For the same molecule, the “Apoptosis subG1” value ([1]; CEM, 24 h, 3 μM) was 15%, the “Cell cycle distribution G0/G1” value ([1]; CEM, 24 h, 3 μM) was 14% and the “Cell cycle distribution G2/M” value ([1]; CEM, 24 h, 3 μM) was 30%. For the same molecule, the “Cell cycle distribution S” value ([1]; CEM, 24 h, 3 μM) was 41%, the IC50 [2] was 890 ± 90 nM and the IC50 [3] was 840 ± 510 nM. The “activity of caspase-3/7 compared with the untreated control” value [4] was “threefold increase”, the IC50 [5] was 230 ± 80 nM and the “PARP (Western blot)” value ([6]; dose-dependent (FIG. 5)) was “cleavage of PARP”. The “antiapoptotic Bcl-2 protein” value ([6]; dose-dependent (FIG. 5)) was “increased”, the “caspase-3 (Western blot)” value ([6]; dose-dependent (FIG. 5)) was “accumulation of caspase-3” and the “expression of tumour suppressor protein p53” value ([6]; dose-dependent (FIG. 5)) was “enhanced expression”. The “phosphorylation of pRb S780” value ([6]; same concentrations (FIG. 5)) was “increase of phosphorylation of pRb S780”.
